Test results: PubChem BioAssay AID1996
Converted amounts (≈) assume the structure as drawn.

Conditions: buffer; pH 7.4; 200.0 µM

SMILES | solubility kinetic [µg/mL]
COCCCNC(=O)C(C)N1c2cccc3cccc(c23)S1(=O)=O (centres undefined) | 50.2 (≈ 144 µM)
COc1ccc(C(=O)OCc2c(C)noc2C)cc1 | > 39.2
COC(=O)c1cc(NC(=O)c2cccnc2)cc(C(=O)OC)c1 | 5.6 (≈ 17.8 µM)
CC(C)CC(N(C)C)C1(c2ccc(Cl)cc2)CCC1.Cl (centres undefined) | < 0.7
Clc1ccccc1OCCCn1ccnc1 | 26.4 (≈ 112 µM)
O=C(O)CCc1nc2cc(Cl)ccc2n(Cc2ccccc2)c1=O | > 51.4
CC(=O)/C(C#N)=C1\NC(=O)C(Cc2ccc(F)cc2)S1 (centres undefined) | > 43.5
O=C(COC(=O)c1ccco1)NC1CCCC1 | 28.1 (≈ 118 µM)
O=C(O)CCCc1ccc(N(CCCl)CCCl)cc1 | > 45.6
Cc1ccc(C)c(N2CC(C(=O)O)CC2=O)c1 (centres undefined) | > 35
CSc1ccccc1NC(=O)c1cc(-c2ccco2)on1 | 1.1 (≈ 3.66 µM)
O=c1[nH]c2ccc(NCc3ccc(F)cc3)cc2[nH]1 | 35.9 (≈ 140 µM)
CC(SC1=NCCN1S(C)(=O)=O)c1ccccc1 (centres undefined) | 42.5 (≈ 149 µM)
Nc1nc(NCCCN2CCOCC2)nc(Nc2cccc(F)c2)c1[N+](=O)[O-] | 6.3 (≈ 16.1 µM)
Cc1csc(NC(=O)CSc2nncs2)n1 | > 40.9
COc1cccc(CC(=O)Nc2ccc(S(=O)(=O)N3CCCCC3)cc2)c1 | 10.1 (≈ 26 µM)
C=CCNC(=S)N1CCN(c2ncc(C(F)(F)F)cc2Cl)CC1 | 35.7 (≈ 97.9 µM)
CSc1ccccc1NC(=O)CN(C)CC(=O)c1[nH]c(C)c(C(C)=O)c1C | 6.7 (≈ 17.3 µM)
CC(=O)N1CCCC1(C(=O)O)c1ccccc1 (centres undefined) | 33.8 (≈ 145 µM)
CC1=C(C(=O)OC2CCCCC2)C(c2ccccc2)NC(=O)N1 (centres undefined) | 11.3 (≈ 35.9 µM)
CC(C)c1ccc2nc(SCC(=O)NCC3CCCO3)c(C#N)cc2c1 (centres undefined) | 2.4 (≈ 6.5 µM)
CCOC(=O)/C(C#N)=C/Nc1ccsc1C(=O)OC | < 0.3
CC(C)(C)C(=O)NC(=S)N1CCc2ccccc21 | 31 (≈ 118 µM)
CN(C)c1ccc(C(=O)OCC(=O)N2CCCC2)cc1 | > 41.5

SMILES | solubility kinetic [µg/mL]
N#C/C(=C/c1cccc(O)c1)C(=O)NCc1ccc(Cl)cc1 | 1.3 (≈ 4.16 µM)
Cc1cc(C)cc(NC2=C(N)C(=O)c3ccccc3C2=O)c1 | 0.4 (≈ 1.37 µM)
COc1ccc(/C=N/NC(=O)c2cc[n+]([O-])cc2)cc1 | > 40.7
NC(=NCc1ccco1)NC(=O)c1ccc(Cl)cc1 | > 41.7
O=C1Nc2c(ccc(Cl)c2Cl)C(=O)C1(F)c1ccccc1 (centres undefined) | < 0.7
CC(=O)c1c(C)[nH]c(C(=O)OCCOc2ccccc2)c1C | 1.3 (≈ 4.31 µM)
Cc1ccc(C2NC(=NCc3ccccc3)Nc3nc(C)cc(=O)n32)cc1 (centres undefined) | 13.1 (≈ 36.4 µM)
Cc1[nH]c(=O)[nH]c(=O)c1S(=O)(=O)Nc1cccc(C(F)(F)F)c1 | > 52.4
CC(NC(=O)CCNC(=O)c1ccccc1Cl)c1ccc(-n2ccnc2)cc1 (centres undefined) | > 59.5
COc1cc(-c2cc(C(=O)Nc3cc(S(=O)(=O)N4CCOCC4)ccc3O)c3ccccc3n2)cc(OC)c1OC | 3.3 (≈ 5.69 µM)
O=C(O)c1ccc2cc(-c3ccccc3)[nH]c2c1 | 31.2 (≈ 132 µM)
COc1ccc(CNc2ccc([N+](=O)[O-])cn2)cc1 | 3 (≈ 11.6 µM)
CNC(=O)CSc1nc2ccccc2c(=O)n1CCc1ccccc1 | < 0.3
COc1cc(Nc2ncnc(N)n2)cc(OC)c1 | > 37.1
CS(=O)(=O)N1CCCC(C(=O)Nc2c(F)cccc2F)C1 (centres undefined) | > 47.8
Cc1cc(=O)[nH]c(-c2cccs2)n1 | > 28.8
Cc1csc(NC(=O)Cc2ccc(Cl)cc2)n1 | 22.2 (≈ 83.2 µM)
O=C(C1=C(O)C(=O)N(c2ncccn2)C1c1ccc(F)cc1)c1ccco1 (centres undefined) | 53.1 (≈ 145 µM)
COC(=O)c1sccc1NC(=S)OC | 6.1 (≈ 26.4 µM)
Cc1ccc(S(=O)(=O)N2CCOCC2)cc1NC(=O)Nc1ccc([N+](=O)[O-])cc1 | 1.8 (≈ 4.28 µM)
CCN1C(=O)/C(=C/N2CCc3ccccc3C2)SC1=S | < 0.3
COc1ccc(C2NC(=O)CCC2[N+](=O)[O-])c(OC)c1 (centres undefined) | > 42
O=C(NC1CCCCNC1=O)c1ccccc1 (centres undefined) | > 34.8
CN1C(=O)N(C)C(c2cccc([N+](=O)[O-])c2)C2=C1CCCC2=O (centres undefined) | > 47.3

SMILES | solubility kinetic [µg/mL]
CC1CCCCN1C(=O)CCS(=O)(=O)c1cccc2nonc12 (centres undefined) | 41.8 (≈ 124 µM)
Nc1ccccc1SC1CC(=O)N(c2ccc3c(c2)OCCO3)C1=O (centres undefined) | 0.9 (≈ 2.53 µM)
Cc1onc(-c2ccccc2Cl)c1C(=O)Nc1ccc(Cl)cn1 | 1 (≈ 2.87 µM)
CSCCn1c(C(C)(C)C)cc(C(=O)O)c1C | 31.3 (≈ 123 µM)
CN1C(C)(C)CC(NC(=O)c2ccco2)CC1(C)C | > 39.7
CCOc1ccccc1NC(=O)N1CCCC1C(=O)NCc1ccco1 (centres undefined) | 48.2 (≈ 135 µM)
Cc1ccc(C(=O)OCC(=O)Nc2ccc(F)c(Cl)c2)o1 | 2.9 (≈ 9.3 µM)
Cc1cc(C)c(C)c(S(=O)(=O)NCc2ccncc2)c1C | 25.8 (≈ 84.8 µM)
COc1ccc(C/C(N)=N/OC(=O)c2ccco2)cc1OC | > 45.6
O=C(CCCc1ccccc1)Nc1cccc([N+](=O)[O-])c1 | 26.4 (≈ 92.9 µM)
O=C(CNC(=O)[C@@H]1Cc2ccccc2CN1)NCc1ccco1 | > 47
O=C(Nc1ccccc1Cl)NC1CCCCCCC1 | 0.4 (≈ 1.42 µM)
Cc1cccc(C(=O)Nc2cccc(C(=O)NC3CCCC3)c2)c1 | 23.6 (≈ 73.2 µM)
COc1ccccc1CNCC(c1ccccc1)c1ccccc1 | 33.6 (≈ 106 µM)
Cc1cc(C)c2cc(C(=O)N3CCC(Cc4ccccc4)CC3)[nH]c2c1 | < 0.4
Cc1cc(C)c(S(=O)(=O)NC2CC2)c(C)c1 | > 35.9
C=CCOc1cccc(/C=C\c2nc(O)c([N+](=O)[O-])c(=O)[nH]2)c1 | > 47.3
O=C(NC1CCCC1)C1CCN(C(=O)c2cccc(Cl)c2)CC1 | > 50.2
Cc1cccc(C(=O)OCC(=O)c2ccc3c(c2)NC(=O)CO3)c1 | 4.5 (≈ 13.8 µM)
O=C(O)c1ccc(N=Cc2nc(-c3ccco3)oc2O)cc1 | > 44.7
Cc1ccc2c(c1)C(c1ccccc1)=NCC(=O)N2 | > 37.5
NS(=O)(=O)c1cccc(NC(=O)c2ccc(NS(=O)(=O)c3cccc([N+](=O)[O-])c3)cc2)c1 | > 71.5
CCCCN1C(=O)C2(OCCCO2)c2cccc(C)c21 | 25.1 (≈ 91.2 µM)
O=C(NCc1ccc(Cl)cc1)N1CCOCC1 | > 38.2

SMILES | solubility kinetic [µg/mL]
COc1ccc(C(=O)NC23CC4CC(CC(C4)C2)C3)cc1OC | 2.9 (≈ 9.19 µM)
CC1CN(c2ccc([N+](=O)[O-])cn2)CC(C)O1 (centres undefined) | > 35.6
COc1ccc(NC(=O)c2ccc(S(=O)(=O)N3CCCCC3)cc2)cc1OC | 5.5 (≈ 13.6 µM)
CCOC(=O)c1c(NC(=O)C2CC2)sc2c1CC(C)(C)OC2 | < 0.7
CC(C)=C(NC(=O)c1ccccc1)C(=O)NCc1ccccc1 | > 46.3
COc1ccc(NC(=O)NC2CCCc3ccccc32)cc1 (centres undefined) | 1.9 (≈ 6.41 µM)
Cc1ccc(CNc2nc(C)cs2)cc1 | 25.3 (≈ 116 µM)
CC(C)(C)NC(=O)NCc1ccco1 | > 29.4
COc1ccccc1NC(=O)C1CCCN1C(=O)NC1CCCCC1 (centres undefined) | 42.4 (≈ 123 µM)
O=C(c1ccccc1Cl)N1CCSCC1 | 31.7 (≈ 131 µM)
Cc1ccc(SC(C)C(=O)NCc2ccc(F)cc2)cc1 (centres undefined) | 8.2 (≈ 27 µM)
COc1cc(OC)cc(C(=O)Nc2cccc3nc(C)ccc23)c1 | 2.9 (≈ 9 µM)
COC(Cn1cc(C)c(=O)[nH]c1=O)OC | 30.3 (≈ 141 µM)
NC(=S)Nc1cc(Cl)cc(Cl)c1 | 33 (≈ 149 µM)
Cc1ccc(C(=O)NS(=O)(=O)c2ccc(C)cc2)cc1 | > 43.4
CCOC(=O)c1sc(SC)c2c1CCC/C2=N/OC | 0.7 (≈ 2.34 µM)
c1ccc(-c2cc3ccccc3[nH]2)cc1 | 0.7 (≈ 3.62 µM)
COc1ccc(-c2[nH]ncc2CNC(C)Cc2cccc(C)n2)cc1F (centres undefined) | > 53.2
CC12COC3(C(=O)Nc4ccccc4F)CC1CCC32C (centres undefined) | 9.1 (≈ 31.4 µM)
COc1cc(OC)cc(C(=O)NCC(=O)OCC(=O)NC(C)CCc2ccccc2)c1 (centres undefined) | > 64.3
COc1ccc(C(=O)N2CCC(c3ccccc3)CC2)c(OC)c1OC | 47.6 (≈ 134 µM)
O=S(=O)(NC1CCCC1)c1cc(F)ccc1F | > 39.2
O=C(OCC(=O)N1CCCC1)c1ccc(O)cc1 | > 37.4
COC(=O)c1ccccc1Oc1ccc(NC(=O)c2ccco2)cc1 | 49.6 (≈ 147 µM)

SMILES | solubility kinetic [µg/mL]
Cc1ccc2nc(N3CC(C)OC(C)C3)nc(-c3ccccc3)c2c1 (centres undefined) | 2.2 (≈ 6.6 µM)
CCOC(=O)c1c(NC(=O)c2ccccc2C(=O)O)sc2c1CCCC2 | 41.5 (≈ 111 µM)
COc1ccc(CNC(=O)CCc2c[nH]c3ccccc23)cc1 | 24.6 (≈ 79.8 µM)
CC(C)(C)c1ncc(S(=O)(=O)c2ccc(C(F)(F)F)cn2)c(N)n1 | 1.4 (≈ 3.88 µM)
COc1ccc(CCNC(=O)CSCC(=O)Nc2cc(S(C)(=O)=O)ccc2Cl)cc1 | 18.6 (≈ 39.5 µM)
O=C(CN1C(=O)NC2(CCc3ccccc32)C1=O)c1ccc(Br)cc1 (centres undefined) | 4.4 (≈ 11 µM)
CC1CCN(CCn2c(=S)[nH]c3ccccc3c2=O)CC1 | 43.3 (≈ 143 µM)
CCC(CO)NCC(O)COCc1ccc2c(c1)OCO2 (centres undefined) | > 44.6
CCc1c(C)nc(N)c(C#N)c1-c1ccccc1 | 0.3 (≈ 1.26 µM)
CCN(CC)c1ccc(Nc2nc(Cl)ncc2Br)cc1 | 12.8 (≈ 36 µM)
CC(=O)N1CCOCCOCCN(C(C)=O)CCOCC1 | > 45.4
Cc1cccc(NS(=O)(=O)c2ccc3[nH]c(=O)[nH]c3c2)c1C | 5 (≈ 15.8 µM)
N#C/C(=C\c1ccc(-c2ccccc2[N+](=O)[O-])o1)C(N)=O | 2.2 (≈ 7.77 µM)
CCOC(=O)Cn1cnc2scc(-c3ccc(C)cc3)c2c1=O | 38.2 (≈ 116 µM)
CC1CC(C)CN(C(=O)COc2cccnc2[N+](=O)[O-])C1 (centres undefined) | > 44
CC(C)c1ccc(NC(=O)COC(=O)C2CC3C=CC2C3)cc1 (centres undefined) | 22.1 (≈ 70.5 µM)
C=CCn1c(N2CCCC2)nc2c1c(=O)n(C)c(=O)n2C | > 43.4
O=c1cc(-c2ccccc2)nc(Sc2ccc([N+](=O)[O-])cc2[N+](=O)[O-])[nH]1 | 3.3 (≈ 8.91 µM)
COc1cc(OC)c(C(=O)OCC(=O)NC2CCCC2)cc1OC | > 50.6
O=C(Nc1ccccn1)c1cc(-c2cccc(Cl)c2)nc2ccccc12 | < 0.3
CCC(CO)NCc1ccccc1OC(C)C.Cl (centres undefined) | > 41.1
CSCC[C@H](NC(=O)Nc1ccccc1C)C(=O)O | > 42.4
Cc1cccc(C(=O)Nc2ccnc(-c3cccnc3)n2)c1 | 5.4 (≈ 18.6 µM)
